Measurements: patent publication US8507550B2, “Treatment for altitudinal hypoxia” (AesRx LLC, priority 2010, dated 2013)

What was measured:
[1] = test system: SCD Hb; details: sickle cell disease mouse model; Abdulmalik 2004; cited from earlier work
[2] = test system: sickle cell disease mouse model; details: Abdulmalik 2004; cited from earlier work
[3] = test system: human subject; test: hypoxia induced by moderate exercise at elevated altitude in a human subject; format: in vivo; details: 3,000 meters altitude, at rest 3 hours and after one hour bike; dosage giving P50 of 18 mm Hg; day 2 (treated) vs day 1
Protocol: A 90 kg person in good health is transported from low elevation (<100 meters above sea level) to an altitude of 3,000 meters above sea level and kept at rest there for 3 hours. At that point, the subject is tested for respiration rate, heart rate and extremity O2. The subject is then put on a stationary exercise bike and allowed to ride the bike at a cadence of 40 rpm for one hour. The subject is again tested for respiration rate, heart rate and extremity O2. Then the subject is transported back to low elevation. […] The subject is kept at rest there for 3 hours, then tested for respiration rate, heart rate and extremity O2. The subject is then put on a stationary exercise bike and allowed to ride the bike at a cadence of 40 rpm for one hour. The subject is again tested for respiration rate, heart rate and extremity O2. The data from the two days are then compared.

[4] = test system: rats; details: females; cited from earlier work

O=Cc1ccc(CO)o1 [5-HMF, 5-hydroxymethyl-2-furfural]
P50 of SCD Hb [1]: lower P50 (left shift)
in vivo protection against the lethal effects of hypoxia [2]: provides in vivo protection against the lethal effects of hypoxia
respiration rate, heart rate and extremity O2 [3]: closer to normal on day 2 than on day 1
acute oral LD50 [4]: 2500 to 5000 mg/kg
